Measurements: the NIST ThermoML archive (doi:10.1016/j.jct.2014.06.004)

How the values were obtained:
[1] = refractive index (Na D-line) (dimensionless); xn = mol fraction of the nth substance listed; conditions: 100 kPa, Liquid, Standard Abbe refractometry
[2] = xn = mol fraction of the nth substance listed; conditions: 100 kPa, Liquid; for speed of sound: Frequency=3 MHz, Sing-around technique in a fixed-path interferometer; for mass density: Vibrating tube method

CCCCCCC(=O)O [heptanoic acid] + CCCC(=O)O
Conditions | mass density, [2] [kg/m3] | refractive index, [1] | speed of sound, [2] [m/s]
293.15 K, x1 = 0.0559 | 954.2 | 1.4005 | 1203
293.15 K, x1 = 0.1059 | 951.3 | 1.4024 | 1209
293.15 K, x1 = 0.2061 | 945.8 | 1.4054 | 1222
293.15 K, x1 = 0.3087 | 940.8 | 1.4084 | 1233
293.15 K, x1 = 0.4037 | 936.7 | 1.4109 | 1244
293.15 K, x1 = 0.5037 | 932.7 | 1.4134 | 1254
293.15 K, x1 = 0.6006 | 929.2 | 1.4157 | 1263
293.15 K, x1 = 0.7049 | 925.8 | 1.4179 | 1272
293.15 K, x1 = 0.805 | 922.8 | 1.4199 | 1280
293.15 K, x1 = 0.9052 | 920.1 | 1.4217 | 1289
293.15 K, x1 = 0.9575 | 918.7 | 1.4226 | 1292
293.15 K, x1 = 1 | 917.7 | 1.4234 | 1295
298.15 K, x1 = 0.0559 | 949.3 | 1.3984 | 1185
298.15 K, x1 = 0.1059 | 946.4 | 1.4001 | 1191
298.15 K, x1 = 0.2061 | 941 | 1.4033 | 1203
298.15 K, x1 = 0.3087 | 936.2 | 1.4063 | 1215
298.15 K, x1 = 0.4037 | 932.1 | 1.4089 | 1225
298.15 K, x1 = 0.5037 | 928.2 | 1.4114 | 1236
298.15 K, x1 = 0.6006 | 924.8 | 1.4136 | 1245
298.15 K, x1 = 0.7049 | 921.5 | 1.4159 | 1254
298.15 K, x1 = 0.805 | 918.5 | 1.4179 | 1263
298.15 K, x1 = 0.9052 | 915.9 | 1.4197 | 1271
298.15 K, x1 = 0.9575 | 914.5 | 1.4207 | 1275
298.15 K, x1 = 1 | 913.5 | 1.4214 | 1278
303.15 K, x1 = 0.0559 | 944.4 | 1.3963 | 1166
303.15 K, x1 = 0.1059 | 941.6 | 1.398 | 1172
303.15 K, x1 = 0.2061 | 936.3 | 1.4012 | 1185
303.15 K, x1 = 0.3087 | 931.5 | 1.4042 | 1197
303.15 K, x1 = 0.4037 | 927.6 | 1.4068 | 1207
303.15 K, x1 = 0.5037 | 923.8 | 1.4093 | 1217
303.15 K, x1 = 0.6006 | 920.4 | 1.4116 | 1227
303.15 K, x1 = 0.7049 | 917.1 | 1.4138 | 1236
303.15 K, x1 = 0.805 | 914.2 | 1.4158 | 1245
303.15 K, x1 = 0.9052 | 911.6 | 1.4177 | 1253
303.15 K, x1 = 0.9575 | 910.3 | 1.4186 | 1257
303.15 K, x1 = 1 | 909.3 | 1.4194 | 1260
308.15 K, x1 = 0.0559 | 939.5 | 1.3942 | 1147
308.15 K, x1 = 0.1059 | 936.7 | 1.3958 | 1154
308.15 K, x1 = 0.2061 | 931.5 | 1.3991 | 1167
308.15 K, x1 = 0.3087 | 926.9 | 1.4021 | 1179
308.15 K, x1 = 0.4037 | 923 | 1.4047 | 1189
308.15 K, x1 = 0.5037 | 919.3 | 1.4072 | 1199
308.15 K, x1 = 0.6006 | 916 | 1.4095 | 1209
308.15 K, x1 = 0.7049 | 912.8 | 1.4117 | 1218
308.15 K, x1 = 0.805 | 910 | 1.4138 | 1227
308.15 K, x1 = 0.9052 | 907.4 | 1.4157 | 1235
308.15 K, x1 = 0.9575 | 906.1 | 1.4166 | 1239
308.15 K, x1 = 1 | 905.1 | 1.4173 | 1242
313.15 K, x1 = 0.0559 | 934.6 | 1.392 | 1129
313.15 K, x1 = 0.1059 | 931.9 | 1.3937 | 1136
313.15 K, x1 = 0.2061 | 926.8 | 1.397 | 1148
313.15 K, x1 = 0.3087 | 922.3 | 1.4 | 1161
313.15 K, x1 = 0.4037 | 918.5 | 1.4026 | 1171
313.15 K, x1 = 0.5037 | 914.8 | 1.4051 | 1182
313.15 K, x1 = 0.6006 | 911.6 | 1.4074 | 1191
313.15 K, x1 = 0.7049 | 908.4 | 1.4097 | 1201
313.15 K, x1 = 0.805 | 905.7 | 1.4117 | 1209
313.15 K, x1 = 0.9052 | 903.1 | 1.4136 | 1218
313.15 K, x1 = 0.9575 | 901.9 | 1.4146 | 1222
313.15 K, x1 = 1 | 900.9 | 1.4153 | 1225
